Test results taken from PubChem BioAssay (NCI).
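Cultured in 96-well plates, cells were exposed to test compound for 48 hours across five concentrations. The concentration for full growth arrest is given as TGI.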

Experiments:
Assay in all cases: inhibition of tumour cell growth, NCI panel, 48 h
786-0 renal = tested on: 786-0 renal
LOX IMVI melanoma = tested on: LOX IMVI melanoma
MDA-MB-231 breast = tested on: MDA-MB-231 breast
HS 578T breast = tested on: HS 578T breast
SF-539 CNS = tested on: SF-539 CNS
CCRF-CEM leukemia = tested on: CCRF-CEM leukemia
T-47D breast = tested on: T-47D breast
M14 melanoma = tested on: M14 melanoma
RPMI-8226 leukemia = tested on: RPMI-8226 leukemia
A498 renal = tested on: A498 renal

Row | SMILES | TGI (786-0 renal) | TGI (LOX IMVI melanoma) | TGI (MDA-MB-231 breast) | TGI (HS 578T breast) | TGI (SF-539 CNS) | TGI (CCRF-CEM leukemia) | TGI (T-47D breast) | TGI (M14 melanoma) | TGI (RPMI-8226 leukemia) | TGI (A498 renal)
1 | Clc1cc2ncn(C3CCCO3)c2cc1Cl (centres undefined) | > 100 µM | > 100 µM | > 100 µM | > 100 µM | > 100 µM | > 100 µM | > 100 µM | > 100 µM | > 100 µM | 
2 | COc1c(-c2nc3nc(N4CCN(C)CC4)ccc3[nH]2)cc(OC)c2c1nc(CCl)n2C | > 100 µM | 24 µM | 46.1 µM | > 100 µM | 20.7 µM | 62.1 µM | 38.9 µM | 33.7 µM | 43.1 µM | 
3 | CC(=O)Oc1cc(OC(C)=O)c2c(c1C)CC[C@@H]1[C@@H]2CC[C@]2(C)[C@@H](OC(C)=O)CC[C@@H]12 | 34.8 µM | 34.2 µM | 30.5 µM | 53.2 µM | 30.4 µM | 49.4 µM |  | 34.9 µM | 31.3 µM | 34.8 µM
4 | CCCCCCCCCCCCCCCC(=O)OCC(COP(=O)(O)OCCNC(=O)CCSSc1ccccn1)OC(=O)CCCCCCCCCCCCCCC (centres undefined) | > 100 µM |  | > 100 µM | > 100 µM | > 100 µM | > 100 µM | > 100 µM | > 100 µM | > 100 µM | > 100 µM
5 | CC(C)(C)OC(=O)NCCCCC1NC(=O)[C@@H]2Cc3c([nH]c4ccccc34)C(c3ccccc3)N2C1=O (some centres undefined) | 82.3 µM | 56.4 µM | 94.6 µM | 49.6 µM |  | > 100 µM | > 100 µM | 92.3 µM | > 100 µM | > 100 µM
6 | COc1cc(O)c2c(=O)c(O)c(-c3ccc(O)c(O)c3)oc2c1 |  | 31.9 µM | 95.8 µM |  |  | 33 µM | > 100 µM | 42.6 µM | > 100 µM | 14.9 µM
7 | CC(C)[C@H](NC(=O)OCc1ccccc1)C(=O)N[C@H](/C=C/C(=O)OC(C)(C)C)CO | > 100 µM | > 100 µM | > 100 µM | > 100 µM | > 100 µM | > 100 µM | > 100 µM | > 100 µM |  | > 100 µM
8 | O=C(c1ccccc1)n1c2ccc(Br)cc2c2nc3ccccc3nc21 | > 100 µM | > 100 µM | > 100 µM |  | > 100 µM | > 100 µM |  | > 100 µM | > 100 µM | 
9 | CCOC(=O)c1sc2nc(SC)nc3c2c1NCN3c1ccccc1Cl | > 100 µM | > 100 µM | > 100 µM | 73.3 µM |  | > 100 µM | 60.3 µM | > 100 µM | > 100 µM | > 100 µM
10 | CC(C)=C[C@@H]1C[C@H](C)[C@H]2CC[C@H](C)[C@H]3C(=O)C(O)=C(C)C(=O)[C@]123 | > 100 µM | > 100 µM | > 100 µM | > 100 µM | > 100 µM | > 100 µM |  | > 100 µM | > 100 µM | > 100 µM
11 | O=CC12CCCN1CCC2 | > 100 µM | > 100 µM | > 100 µM |  |  | > 100 µM | > 100 µM | > 100 µM |  | 
12 | Nc1nc2c(ccc3ccccc32)[nH]1 |  | > 10 µM | > 10 µM | > 10 µM | > 10 µM | > 10 µM | > 10 µM | > 10 µM | > 10 µM | > 10 µM
13 | CN(C)c1ccc(/C=C2\CCCCCC2=O)cc1 | > 100 µM |  | > 100 µM |  | > 100 µM | > 100 µM | > 100 µM | > 100 µM | > 100 µM | > 100 µM
14 | CCCCSC1=N/C(=C\c2ccccc2O)C(Cl)=N1 | > 100 µM | > 100 µM | > 100 µM | > 100 µM | > 100 µM |  | > 100 µM | > 100 µM | > 100 µM | > 100 µM
15 | O=P1(C(O)c2ccccc2)N(Cc2ccccc2)[C@@H]2CCCC[C@H]2N1Cc1ccccc1 (some centres undefined) | 47.9 µM | 32.1 µM | 53.8 µM | 45.5 µM | 45.6 µM | > 100 µM | 85.6 µM | 58.5 µM |  | 
16 | Cc1ccc(C(=O)C2CC3(CCC2(O)c2ccc(C)cc2)CC(=O)Nc2ccccc2C3=O)cc1 (centres undefined) |  | > 100 µM | > 100 µM | > 100 µM | > 100 µM | > 100 µM | > 100 µM | > 100 µM |  | > 100 µM
17 | C/C(=C\CNc1ncnc2c1ncn2CCC#N)CO | > 100 µM | > 100 µM | > 100 µM | > 100 µM | > 100 µM | > 100 µM | > 100 µM | > 100 µM | > 100 µM | 
18 | Nc1c(/C=C/c2cc3cc(C4=NCCN4)ccc3o2)[nH]c2cc(C3=NCCN3)ccc12 | > 100 µM | > 100 µM | > 100 µM | > 100 µM | > 100 µM |  | > 100 µM | > 100 µM | > 100 µM | > 100 µM
19 | Nn1c(=S)[nH]nc(/C=C/c2c(O)ccc3ccccc23)c1=O | > 100 µM | 11.7 µM |  |  | > 100 µM | 9.7 µM | 31.9 µM | 41.6 µM | > 100 µM | 69.9 µM
20 | CCCCC(C)(C/C=C/[C@@H]1[C@@H](C(O)CCCCCC(=O)OC)C(=O)C[C@H]1O[Si](C)(C)C(C)(C)C)O[Si](C)(C)C (some centres undefined) | > 100 µM | > 100 µM | > 100 µM |  | > 100 µM | 85.4 µM |  | > 100 µM | > 100 µM | 
21 | COc1ccc2c(C=O)c3n(c(=O)c2c1OC)CCc1cc2c(cc1-3)OCO2 | > 100 µM |  | > 100 µM | > 100 µM | > 100 µM | > 100 µM | > 100 µM | > 100 µM | 30.5 µM | > 100 µM
22 | O=C1CSC(c2cccc(Oc3ccccc3)c2)N1c1cc(Cl)ccc1Cl (centres undefined) | 36.9 µM | 43.1 µM | 43.3 µM | 77.7 µM | 35.6 µM | > 100 µM | 89.6 µM | 50.5 µM |  | 70.7 µM
23 | FC(F)(Sc1nc2ccccc2[nH]1)c1nc2ccccc2o1 | > 100 µM |  | > 100 µM | > 100 µM | > 100 µM | > 100 µM | > 100 µM | > 100 µM | > 100 µM | > 100 µM
